Results from article PMC8813842 (Clinical Pharmacokinetics, 2021).
“Also recorded” adds a separate entry of the source.

Columns and labels:
[1] = Population PK of allopurinol and oxypurinol in HIE neonates; assay type: in vivo, human; settings: for Patients reaching the predefined AUC12 target: ALBINO study; for AUC: human, plasma, intravenous, 20 mg/kg; for Difference in CL between males and females: sex as covariate on CL; for Difference in CL between TH and non-TH patients: therapeutic hypothermia as categorical covariate on CL
xanthine oxidase (XO) = xanthine oxidase (XO) (Homo sapiens, UniProt P47989); settings: in the first 24 h after birth
Chain of xanthine oxidase (XO) (P47989 whole entry): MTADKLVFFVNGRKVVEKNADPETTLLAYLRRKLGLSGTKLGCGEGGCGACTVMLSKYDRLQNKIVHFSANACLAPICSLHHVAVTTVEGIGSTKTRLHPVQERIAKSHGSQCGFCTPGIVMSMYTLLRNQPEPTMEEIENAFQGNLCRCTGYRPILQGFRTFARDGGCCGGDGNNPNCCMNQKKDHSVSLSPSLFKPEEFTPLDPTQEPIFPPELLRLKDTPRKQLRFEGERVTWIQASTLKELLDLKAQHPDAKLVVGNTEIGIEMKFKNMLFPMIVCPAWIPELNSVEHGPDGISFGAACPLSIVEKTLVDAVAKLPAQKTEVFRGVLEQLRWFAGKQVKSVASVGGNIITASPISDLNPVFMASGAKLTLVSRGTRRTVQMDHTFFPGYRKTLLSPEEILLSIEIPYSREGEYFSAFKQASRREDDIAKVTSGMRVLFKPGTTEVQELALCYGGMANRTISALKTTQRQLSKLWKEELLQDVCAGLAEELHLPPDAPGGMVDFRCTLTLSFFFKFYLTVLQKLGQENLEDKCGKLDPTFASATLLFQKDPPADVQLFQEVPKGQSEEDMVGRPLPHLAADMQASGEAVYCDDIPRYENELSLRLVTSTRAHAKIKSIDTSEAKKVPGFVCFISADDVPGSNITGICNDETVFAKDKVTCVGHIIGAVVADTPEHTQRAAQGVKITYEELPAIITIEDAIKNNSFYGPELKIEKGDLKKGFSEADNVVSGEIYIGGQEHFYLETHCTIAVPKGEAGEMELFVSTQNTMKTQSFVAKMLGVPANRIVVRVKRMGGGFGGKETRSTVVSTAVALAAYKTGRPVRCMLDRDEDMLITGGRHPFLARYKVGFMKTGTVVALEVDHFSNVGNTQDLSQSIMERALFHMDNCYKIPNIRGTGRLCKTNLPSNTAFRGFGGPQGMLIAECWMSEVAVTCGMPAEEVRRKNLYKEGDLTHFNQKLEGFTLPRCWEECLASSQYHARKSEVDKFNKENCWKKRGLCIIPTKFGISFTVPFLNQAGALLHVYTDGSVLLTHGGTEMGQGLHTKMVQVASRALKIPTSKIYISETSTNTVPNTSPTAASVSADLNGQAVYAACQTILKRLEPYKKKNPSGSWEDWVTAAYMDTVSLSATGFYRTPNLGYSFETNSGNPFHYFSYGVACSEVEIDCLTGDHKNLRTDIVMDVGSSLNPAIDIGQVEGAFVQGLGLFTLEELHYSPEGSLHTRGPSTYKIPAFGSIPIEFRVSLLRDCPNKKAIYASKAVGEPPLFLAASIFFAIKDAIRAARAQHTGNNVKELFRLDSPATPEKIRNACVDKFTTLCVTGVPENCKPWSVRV

[2] = renal, URAT1 most important transporter; cited from earlier work

Patients reaching the predefined AUC12 target ([1]; TH group) [%]	Patients reaching the predefined AUC12 target ([1]; non-TH group)	AUC [1] [ng·h/mL]	Difference in CL between males and females [1]	Decrease of estimated allopurinol CL due to autoinhibition (xanthine oxidase (XO)) [%]	Structure (SMILES)	Difference in CL between TH and non-TH patients [1]	Glomerular filtered oxypurinol actively reabsorbed [2]
92	all patients reached the targets	160000 ± 62600	No significant difference	70	Oc1ncnc2[nH]ncc12 [allopurinol]	No difference; also recorded: no significant differences; also recorded: not significantly different; also recorded: Clearances of allopurinol and oxypurinol were not significantly different between TH and non-TH patients	–
61	all patients reached the targets	37400 ± 12800	No significant difference	–	O=c1[nH]c(=O)c2c[nH]nc2[nH]1 [oxypurinol]	No difference; also recorded: no significant differences; also recorded: not significantly different; also recorded: Clearances of allopurinol and oxypurinol were not significantly different between TH and non-TH patients	approximately 80%
